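In this assay, cells in 96-well plates receive the compound at five concentrations for 48 hours. Endpoints are linearly interpolated between the surrounding concentrations. GI50: concentration for 50% inhibition of growth. At the TGI there is no net growth.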
How the values were obtained:
Assay in all cases: DTP human tumour cell line panel, 48 h
[1] = tested on: MDA-MB-231 breast
[2] = tested on: HOP-62 NSCLC
[3] = tested on: NCI-H23 lung
[4] = tested on: UACC-257 melanoma
[5] = tested on: MCF7 breast
[6] = tested on: MOLT-4 leukemia
[7] = tested on: SN12C renal
[8] = tested on: HCC-2998 colon
[9] = tested on: T-47D breast

| Compound | TGI [1] | TGI [2] | TGI [3] | TGI [4] | TGI [5] | TGI [6] | TGI [7] | TGI [8] | TGI [9] | GI50 [2] | GI50 [3] | GI50 [4] | GI50 [8] |
| --- | --- | --- | --- | --- | --- | --- | --- | --- | --- | --- | --- | --- | --- |
| CC(=O)c1ccc(NC(=O)CSc2nc(C)nc3c2sc(=S)n3-c2ccccc2)cc1 | > 3.16 µM | > 3.16 µM | > 3.16 µM | > 3.16 µM | > 10 µM | > 3.16 µM | > 3.16 µM | > 3.16 µM | > 3.16 µM | – | – | – | – |
| CCOC(=O)CCCn1cc(C(=O)OC)nn1 | > 100 µM | > 100 µM | > 100 µM | > 100 µM | > 100 µM | > 100 µM | > 100 µM | > 100 µM | > 100 µM | – | – | – | – |
| COC(=O)c1ccc(/C=C2\CCc3ccccc3C2=O)cc1 | > 100 µM | > 100 µM | > 100 µM | > 100 µM | > 100 µM | > 100 µM | > 100 µM | > 100 µM | > 100 µM | – | – | – | – |
| C/C(=N\Nc1ccccc1)C(CN(C)C)C(c1ccccc1)c1c(O)c2ccccc2oc1=O (stereo not given) | > 100 µM | > 100 µM | > 100 µM | > 100 µM | > 100 µM | > 100 µM | > 100 µM | > 100 µM | > 100 µM | – | – | – | – |
| CC/C(Cl)=N\OC(=O)Nc1ccc(F)cc1F | 36.7 µM | 46.1 µM | 46.5 µM | 34.2 µM | 44.9 µM | 4.06 µM | 11.5 µM | 36.7 µM | 15.5 µM | – | – | – | – |
| O=C1CC2(CCNCC2)C(=O)N1N1CCOCC1 | > 100 µM | > 100 µM | > 100 µM | > 100 µM | > 100 µM | > 100 µM | > 100 µM | > 100 µM | > 100 µM | – | – | – | – |
| CC12CC(C/C1=N/O)C(C)(C)C2 (stereo not given) | > 100 µM | > 100 µM | > 100 µM | > 100 µM | > 100 µM | – | > 100 µM | > 100 µM | > 100 µM | – | – | – | – |
| CC(C)(C)OC(=O)N1CCc2c(n(C/C=C/c3ccccc3)[nH]c2=O)C1 | > 100 µM | > 100 µM | > 100 µM | > 100 µM | > 100 µM | > 100 µM | > 100 µM | > 100 µM | > 100 µM | – | – | – | – |
| O=C1C=C(N2CCN(c3ccccn3)CC2)C(=O)c2c(O)ccc(O)c21 | 44.9 µM | 47.7 µM | 13 µM | 23.4 µM | 18.6 µM | 42.2 µM | 45.2 µM | 43.1 µM | > 100 µM | – | – | – | – |
| C=C[C@@](C)(/C=C/c1ccc(O)cc1)CCC=C(C)C | 35.8 µM | 33.8 µM | 30.4 µM | 31.9 µM | 35.2 µM | 28 µM | 35.3 µM | 35.5 µM | 28.7 µM | – | – | – | – |
| [N-]=[N+]=C(C(=O)C(=[N+]=[N-])C(=O)c1ccccc1)C(=O)c1ccccc1 | > 100 µM | > 100 µM | > 100 µM | > 100 µM | > 100 µM | – | > 100 µM | > 100 µM | – | – | – | – | – |
| CC(C)(C)c1c(C(C)(C)C)c(=O)c1=O | > 100 µM | > 100 µM | > 100 µM | > 100 µM | > 100 µM | > 100 µM | > 100 µM | > 100 µM | – | – | – | – | – |
| N#CCCC1(CCC#N)CCCCCCC(CCC#N)(CCC#N)C(O)C1O (stereo not given) | – | > 100 µM | > 100 µM | > 100 µM | > 100 µM | – | > 100 µM | > 100 µM | > 100 µM | – | – | – | – |
| O=S(=O)(O)C1CCC(O)C2[N-]CCCC21.O=S(=O)(O)C1CCC(O)C2[N-]CCCC21.[Zn+2] (stereo not given) | > 100 µM | > 100 µM | – | > 100 µM | > 100 µM | > 100 µM | > 100 µM | > 100 µM | > 100 µM | – | – | – | – |
| Cc1c2cccc-2ccc2c1[nH]c1ccccc12 | 3.48 µM | 12.9 µM | 8.99 µM | 3.12 µM | 12.9 µM | 28.2 µM | 7.01 µM | – | 8.45 µM | – | – | – | – |
| CCCCCCOc1ccc(C(=N)N(CCCC)CCCC)c2ccccc12 | – | 3.34 µM | 2.8 µM | 3.06 µM | – | – | – | 3.03 µM | – | 1.7 µM | 1.45 µM | 1.6 µM | 1.59 µM |
| C=CCOC(=O)CCCCCCCCCCCCCCCOC(=O)C1=C(CCC[C@@H](C)O[Si](C)(C)C(C)(C)C)NC(=O)N2[C@H](CC3(CC/C=C\[C@H](CC)O[Si](C(C)C)(C(C)C)C(C)C)OCCO3)CC[C@H]12 | > 100 µM | > 100 µM | > 100 µM | > 100 µM | > 100 µM | – | > 100 µM | > 100 µM | > 100 µM | – | – | – | – |
| CC12CC(c3ccccc3O1)C(C(=O)Nc1cccc(F)c1)C(=O)N2 (stereo not given) | – | > 100 µM | 79.3 µM | > 100 µM | > 100 µM | 54.2 µM | – | > 100 µM | 89.2 µM | – | – | – | – |
| CC(C)(C)c1ccc(-c2nnc(-c3cc(C#N)cc(-c4nnc(-c5ccc(C(C)(C)C)cc5)o4)c3)o2)cc1 | > 100 µM | > 100 µM | > 100 µM | > 100 µM | – | > 100 µM | > 100 µM | > 100 µM | > 100 µM | – | – | – | – |
| COC(=O)C(C(=O)C(=O)NC1Nc2ccc(C)cc2S1)c1nc2ccc(Cl)cc2[nH]c1=O (stereo not given) | > 100 µM | > 100 µM | > 100 µM | > 100 µM | > 100 µM | – | > 100 µM | > 100 µM | > 100 µM | – | – | – | – |
| O=[N+]([O-])c1ccc(NS(=O)(=O)C(F)(F)F)cc1 | > 100 µM | > 100 µM | > 100 µM | > 100 µM | > 100 µM | > 100 µM | > 100 µM | – | > 100 µM | – | – | – | – |
| CCOC(=O)/C(C#N)=C/N(CC)/N=C/c1ccccc1 | > 100 µM | – | > 100 µM | > 100 µM | > 100 µM | > 100 µM | > 100 µM | > 100 µM | > 100 µM | – | – | – | – |
| CNc1ccc(Cl)cc1S(=O)(=O)c1ccccc1[N+](=O)[O-] | > 100 µM | > 100 µM | > 100 µM | – | > 100 µM | > 100 µM | > 100 µM | > 100 µM | > 100 µM | – | – | – | – |
| CC(C)C1CC(CO)(CNc2cc(Cl)nc(N)n2)C1 (stereo not given) | > 100 µM | > 100 µM | – | > 100 µM | > 100 µM | – | > 100 µM | > 100 µM | 87.9 µM | – | – | – | – |
| CC(=O)CC1(C)OC(N)=C(C#N)C1(C#N)C#N (stereo not given) | > 100 µM | > 100 µM | > 100 µM | > 100 µM | > 100 µM | – | > 100 µM | > 100 µM | > 100 µM | – | – | – | – |

Reference: PubChem BioAssay (NCI)
